In ChEMBL document CHEMBL4251574, “Design, synthesis, and biological evaluation of new 1,2,3-triazolo-2'-deoxy-2'-fluoro- 4'-azido nucleoside derivatives as potent anti-HBV agents” (Eur J Med Chem, 2018) one finds inhibition, inhibition in vivo and CC50 data, which are given here for four compounds.

Holding throughout (format): functional
In test [1] the test system is Hepatitis B virus. Nature of the test: Antiviral activity against Hepatitis B virus infected in human HepG2.2.15 cells assessed as inhibition of intracellular HBV DNA level at 1 uM measured on day 6 by FQ-PCR analysis. The note with it: HepG2.2.15, 144 h.
In test [2] the test system is Duck hepatitis B virus. Kind of test: Antiviral activity against DHBV infected in duck assessed as inhibition of viral DNA level in serum at 0.2 mg/kg, po administered once daily measured on day 10 by SYBR Green I dye-based FQ-PCR analysis relative to control. The following applies: 240 h.
For test [3], the system named is Hepatitis B virus. Kind of test: Antiviral activity against Hepatitis B virus infected in human HepG2.2.15 cells assessed as inhibition of HBeAg secretion at 5 uM after 9 days by ELISA relative to control. The note with it: HepG2.2.15, 216 h. (In an ELISA, binding on a coated surface is turned into a signal by an enzyme label.)
In test [4] the test system is Hepatitis B virus. Kind of test: Antiviral activity against Hepatitis B virus infected in human HepG2.2.15 cells assessed as inhibition of intracellular HBV DNA level at 0.2 uM measured on day 9 by FQ-PCR analysis. The note with it: HepG2.2.15, 216 h.
Test [5] has as its system Hepatitis B virus. Nature of the test: Antiviral activity against Hepatitis B virus harboring rtV173L/L180M/M204V mutant infected in HepGRL1 cells assessed as inhibition of intracellular HBV DNA level at 0.2 uM measured on day 9 by FQ-PCR analysis relative to control. The following applies: 216 h.
Test [6] concerns Duck hepatitis B virus. Kind of test: Antiviral activity against DHBV infected in duck assessed as inhibition of viral DNA level in liver at 0.04 mg/kg, po administered once daily measured on day 10 by SYBR Green I dye-based FQ-PCR analysis relative to control. The following applies: 240 h.
Test [7] concerns Hepatitis B virus. Kind of test: Antiviral activity against Hepatitis B virus infected in human HepG2.2.15 cells assessed as inhibition of intracellular HBV DNA level at 0.2 uM measured on day 6 by FQ-PCR analysis. The following applies: HepG2.2.15, 144 h.
A further test has as its system HepG2 2.2.15. Kind of test: Cytotoxicity against human HepG2.2.15 cells after 9 days by MTT assay. The note with it: HepG2 2.2.15, 216 h.
Test [8] concerns Duck hepatitis B virus. Nature of the test: Antiviral activity against DHBV infected in duck assessed as inhibition of viral DNA level in serum at 1 mg/kg, po administered once daily measured on day 15 by SYBR Green I dye-based FQ-PCR analysis relative to control. The note with it: 360 h.
For test [9], the system named is Duck hepatitis B virus. Kind of test: Antiviral activity against DHBV infected in duck assessed as inhibition of viral DNA level in serum at 0.2 mg/kg, po administered once daily measured on day 15 by SYBR Green I dye-based FQ-PCR analysis relative to control. The following applies: 360 h.
In test [10] the test system is Duck hepatitis B virus. Kind of test: Antiviral activity against DHBV infected in duck assessed as inhibition of viral DNA level in liver at 1 mg/kg, po administered once daily measured on day 10 by SYBR Green I dye-based FQ-PCR analysis relative to control. The following applies: 240 h.
For test [11], the system named is Duck hepatitis B virus. Kind of test: Antiviral activity against DHBV infected in duck assessed as inhibition of viral DNA level in liver at 0.04 mg/kg, po administered once daily measured on day 15 by SYBR Green I dye-based FQ-PCR analysis relative to control. The note with it: 360 h.
The subject of test [12] is Hepatitis B virus. Kind of test: Antiviral activity against Hepatitis B virus harboring rtV173L/L180M/M204V mutant infected in HepGRL1 cells assessed as inhibition of intracellular HBV DNA level at 1 uM measured on day 9 by FQ-PCR analysis relative to control. The note with it: 216 h.
Test [13] deals with Duck hepatitis B virus. Nature of the test: Antiviral activity against DHBV infected in duck assessed as inhibition of viral DNA level in serum at 1 mg/kg, po administered once daily measured on day 10 by SYBR Green I dye-based FQ-PCR analysis relative to control. The note with it: 240 h.
Test [14] concerns Hepatitis B virus. Kind of test: Antiviral activity against Hepatitis B virus infected in human HepG2.2.15 cells assessed as inhibition of intracellular HBV DNA level at 1 uM measured on day 9 by FQ-PCR analysis. The following applies: HepG2.2.15, 216 h.
In test [15] the test system is Duck hepatitis B virus. Kind of test: Antiviral activity against DHBV infected in duck assessed as inhibition of viral DNA level in liver at 0.2 mg/kg, po administered once daily measured on day 10 by SYBR Green I dye-based FQ-PCR analysis relative to control. The note with it: 240 h.
Test [16] has as its system Hepatitis B virus. Kind of test: Antiviral activity against Hepatitis B virus harboring rtV173L/L180M/M204V mutant infected in HepGRL1 cells assessed as inhibition of intracellular HBV DNA level at 5 uM measured on day 9 by FQ-PCR analysis relative to control. The note with it: 216 h.
For test [17], the system named is Duck hepatitis B virus. Kind of test: Antiviral activity against DHBV infected in duck assessed as inhibition of viral DNA level in liver at 1 mg/kg, po administered once daily measured on day 15 by SYBR Green I dye-based FQ-PCR analysis relative to control. The following applies: 360 h.
Test [18] has as its system Hepatitis B virus. Nature of the test: Antiviral activity against Hepatitis B virus infected in human HepG2.2.15 cells assessed as inhibition of HBsAg secretion at 5 uM after 9 days by ELISA relative to control. The following applies: HepG2.2.15, 216 h.
Test [19] concerns Duck hepatitis B virus. Kind of test: Antiviral activity against DHBV infected in duck assessed as inhibition of viral DNA level in liver at 0.2 mg/kg, po administered once daily measured on day 15 by SYBR Green I dye-based FQ-PCR analysis relative to control. The note with it: 360 h.
Test [20] deals with Hepatitis B virus. Nature of the test: Antiviral activity against Hepatitis B virus harboring rtV173L/L180M/M204V mutant infected in HepGRL1 cells assessed as inhibition of intracellular HBV DNA level at 5 uM measured on day 6 by FQ-PCR analysis relative to control. The following applies: 144 h.
The subject of test [21] is Hepatitis B virus. Kind of test: Antiviral activity against Hepatitis B virus harboring rtV173L/L180M/M204V mutant infected in HepGRL1 cells assessed as inhibition of intracellular HBV DNA level at 1 uM measured on day 6 by FQ-PCR analysis relative to control. The following applies: 144 h.
Test [22] has as its system Duck hepatitis B virus. Nature of the test: Antiviral activity against DHBV infected in duck assessed as inhibition of viral DNA level in serum at 0.04 mg/kg, po administered once daily measured on day 15 by SYBR Green I dye-based FQ-PCR analysis relative to control. The note with it: 360 h.
Test [23] has as its system Duck hepatitis B virus. Kind of test: Antiviral activity against DHBV infected in duck assessed as inhibition of viral DNA level in serum at 0.04 mg/kg, po administered once daily measured on day 10 by SYBR Green I dye-based FQ-PCR analysis relative to control. The following applies: 240 h.
The test system of test [24] is Hepatitis B virus. Nature of the test: Antiviral activity against Hepatitis B virus harboring rtV173L/L180M/M204V mutant infected in HepGRL1 cells assessed as inhibition of intracellular HBV DNA level at 0.2 uM measured on day 6 by FQ-PCR analysis relative to control. The following applies: 144 h.
Test [25] has as its system Hepatitis B virus. Kind of test: Antiviral activity against Hepatitis B virus infected in human HepG2.2.15 cells assessed as inhibition of intracellular HBV DNA level at 5 uM measured on day 9 by FQ-PCR analysis. The following applies: HepG2.2.15, 216 h.
Test [26] deals with Hepatitis B virus. Nature of the test: Antiviral activity against Hepatitis B virus infected in human HepG2.2.15 cells assessed as inhibition of intracellular HBV DNA level at 5 uM measured on day 6 by FQ-PCR analysis. The following applies: HepG2.2.15, 144 h.

Some results are limits rather than exact numbers.

As to `[N-]=[N+]=N[C@]1(CO)O[C@@H](n2cc(C(N)=O)nn2)[C@@H](F)[C@@H]1O`, the inhibition at 1 µM is 39.3% in the test with Hepatitis B virus [1], 52.4% in the test on Hepatitis B virus [12], 51% with Hepatitis B virus [14] and 27.5% with Hepatitis B virus [21]. For the same compound, the inhibition in vivo at 0.2 mg/kg in the test with Duck hepatitis B virus [2] worked out at 26.1%; in the test with Duck hepatitis B virus [9] it was 39.3%; with Duck hepatitis B virus [15] it was 21.4%; in the test with Duck hepatitis B virus [19], 24.4%. Also, the inhibition at 5 µM in the test with Hepatitis B virus [3] amounted to 21.9%; in the test on Hepatitis B virus [16], 64.1%; with Hepatitis B virus [18], 45.3%; in the test on Hepatitis B virus [20] it was 49.2%; with Hepatitis B virus [25], 57.1%; in the test on Hepatitis B virus [26] it was 42.6%. In addition, the inhibition at 0.2 µM in the test on Hepatitis B virus [4] worked out at 34.7%; in the test on Hepatitis B virus [5], 28.2%; in the test on Hepatitis B virus [7], 13.1%; in the test on Hepatitis B virus [24], 15.8%. Besides, the inhibition in vivo at 0.04 mg/kg in the test on Duck hepatitis B virus [6] was found to be 7.1%; in the test with Duck hepatitis B virus [11] it was 12.2%; with Duck hepatitis B virus [22], 35.7%; in the test on Duck hepatitis B virus [23], 8.7%. Moreover, the midpoint of cytotoxicity in the test on HepG2 2.2.15, the CC50, lay at 526 µM. In addition, the inhibition in vivo at 1 mg/kg in the test with Duck hepatitis B virus [8] came out at 67.9%; with Duck hepatitis B virus [10], 50%; in the test with Duck hepatitis B virus [13], 56.5%; in the test with Duck hepatitis B virus [17], 53.7%.

Turning to `CNC(=N)c1cn([C@@H]2O[C@@](CO)(N=[N+]=[N-])[C@@H](O)[C@@H]2F)nn1`, the inhibition at 5 µM turned out to be 13.8% in the test with Hepatitis B virus [3] and 22.2% in the test on Hepatitis B virus [18]. The CC50 with HepG2 2.2.15 is over 1000 µM.

As for `[N-]=[N+]=N[C@]1(CO)O[C@@H](n2cc(CO)nn2)[C@@H](F)[C@@H]1O`, the inhibition at 5 µM in the test with Hepatitis B virus [3] is 10.8%; in the test with Hepatitis B virus [18] it was 21.5%. Moreover, in the test on HepG2 2.2.15, the CC50 was over 1000 µM.

As to `COC(=N)c1cn([C@@H]2O[C@@](CO)(N=[N+]=[N-])[C@@H](O)[C@@H]2F)nn1`, the results for the inhibition at 5 µM in the test with Hepatitis B virus [3] and with Hepatitis B virus [18] were 11.4% and 17.7%, respectively. This compound came in with a CC50 with HepG2 2.2.15 of 101 µM.

By inhibition is commonly meant the drop in the measured response relative to a control, in per cent. What is called inhibition in vivo is the share of the control response that was lost under treatment. By CC50 is commonly meant the concentration giving 50% cytotoxicity. Read a low CC50 as harm at low concentration.
